For orientation: DC50 means the concentration giving 50% degradation. Low readings indicate a more potent degrader, high ones a less potent degrader.

The values below come from patent publication US12103920B2, “Cereblon binding compounds, compositions thereof, and methods of treatment therewith” (Celgene Corporation, priority 2020, dated 2024).

The target in the assay is T1, AR protein in VCaP cells (Homo sapiens, UniProt P10275).
T1 construct: endogenous in cells; host or cells: VCaP cells
T1 sequence (P10275 1-920): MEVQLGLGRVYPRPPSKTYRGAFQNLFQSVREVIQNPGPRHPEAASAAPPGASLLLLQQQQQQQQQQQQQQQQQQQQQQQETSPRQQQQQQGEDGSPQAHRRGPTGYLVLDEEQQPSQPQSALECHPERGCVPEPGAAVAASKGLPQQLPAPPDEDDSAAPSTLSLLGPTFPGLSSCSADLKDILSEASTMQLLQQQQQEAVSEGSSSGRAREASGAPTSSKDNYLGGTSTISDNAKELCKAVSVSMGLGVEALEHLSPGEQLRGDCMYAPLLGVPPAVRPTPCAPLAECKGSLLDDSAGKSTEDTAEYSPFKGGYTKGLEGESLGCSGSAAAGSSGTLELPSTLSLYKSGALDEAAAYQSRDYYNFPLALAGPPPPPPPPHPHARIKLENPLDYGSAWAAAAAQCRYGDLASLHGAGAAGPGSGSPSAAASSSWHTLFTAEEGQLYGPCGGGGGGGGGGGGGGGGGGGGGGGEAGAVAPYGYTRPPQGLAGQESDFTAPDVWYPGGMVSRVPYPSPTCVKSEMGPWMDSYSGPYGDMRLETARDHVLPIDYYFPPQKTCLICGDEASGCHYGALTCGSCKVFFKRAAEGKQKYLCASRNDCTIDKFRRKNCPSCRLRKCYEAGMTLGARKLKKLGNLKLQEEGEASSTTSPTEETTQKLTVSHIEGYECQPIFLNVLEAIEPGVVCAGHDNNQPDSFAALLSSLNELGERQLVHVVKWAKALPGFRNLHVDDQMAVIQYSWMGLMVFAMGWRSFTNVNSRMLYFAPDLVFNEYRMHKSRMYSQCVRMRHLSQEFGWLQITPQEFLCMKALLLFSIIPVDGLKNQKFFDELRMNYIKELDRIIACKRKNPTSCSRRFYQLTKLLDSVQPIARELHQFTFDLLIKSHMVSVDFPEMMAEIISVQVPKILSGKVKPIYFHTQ
Description: VCAP AR Degradation Assay. Format: cell-based. The following applies: 24 h, AR ELISA; for DC50: concentration at 50% of DMSO control (50% AR degradation); for Y: lowest measured AR level normalized to DMSO control. The method, boiled down: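 VCaP cells in DMEM with 8% FBS were treated 24 h at 37° C with a 10-point 1:3 series (top final 5 μM; 0.1% DMSO control). AR in lysates was measured by sandwich ELISA, normalized to DMSO as percent of control; DC50, EC50 and Ymin came from a four-parameter logistic fit.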

SMILES strings stand for the structures. Structures can show the parent of a compound that is named as a salt. A value given as a limit tells only on which side of the number the result lay.

With `CC1(C)C(=O)N(c2cnc(C#N)c(C(F)(F)F)c2)C(=S)N1[C@H]1CC[C@H](OCCC2CCN(CC(=O)Nc3cccc(NC4CCC(=O)NC4=O)c3)CC2(F)F)CC1` (stereo partly drawn) [Cmpd 46, 2-(4-(2-(((trans)-4-(3-(6-Cyano-5-(trifluoromethyl)pyridin-3-yl)-5,5-dimethyl-4-oxo-2-thioxoimidazolidin-1-yl)cyclohexyl)oxy)ethyl)-3,3-difluoropiperidin-1-yl)-N-(3-((2,6-dioxopiperidin-3-yl)amino)phenyl)acetamide hydrochloride], the DC50 is at most 0.005 µM and the Y result is “* (0<Y≤15%)”.

Consider `CC1(C)C(=O)N(c2cnc(C#N)c(C(F)(F)F)c2)C(=S)N1[C@H]1CC[C@H](CCCN2CCN(CC(=O)Nc3cccc(NC4CCC(=O)NC4=O)c3)[C@@H](C(F)(F)F)C2)CC1` (stereo partly drawn) [Cmpd 25, 2-((R)-4-(3-((trans)-4-(3-(6-Cyano-5-(trifluoromethyl)pyridin-3-yl)-5,5-dimethyl-4-oxo-2-thioxoimidazolidin-1-yl)cyclohexyl)propyl)-2-(trifluoromethyl)piperazin-1-yl)-N-(3-((2,6-dioxopiperidin-3-yl)amino)phenyl)acetamide], for which the DC50 was 0.005 to 0.01 µM and the Y entry is listed as “* (0<Y≤15%)”.

For `C[C@@H]1CN(CCO[C@H]2CC[C@H](N3C(=S)N(c4cnc(C#N)c(C(F)(F)F)c4)C(=O)C3(C)C)CC2)C[C@H](C)N1CC(=O)Nc1cccc(N[C@@H]2CCC(=O)NC2=O)c1` [Cmpd 48, 2-((2R,6S)-4-(2-(((trans)-4-(3-(6-Cyano-5-(trifluoromethyl)pyridin-3-yl)-5,5-dimethyl-4-oxo-2-thioxoimidazolidin-1-yl)cyclohexyl)oxy)ethyl)-2,6-dimethylpiperazin-1-yl)-N-(3-(((R)-2,6-dioxopiperidin-3-yl)amino)phenyl)acetamide], the DC50 is under 1 µM and the Y entry was “* (0<Y≤15%)”.

Take `CC1(C)C(=O)N(c2ccc(C#N)c(C(F)(F)F)c2)C(=S)N1[C@H]1CC[C@H](OCCCN2CCN(CC(=O)Nc3cccc(NC4CCC(=O)NC4=O)c3)[C@@H](C(F)(F)F)C2)CC1` (stereo partly drawn) [Cmpd 30, 2-((R)-4-(3-(((trans)-4-(3-(4-Cyano-3-(trifluoromethyl)phenyl)-5,5-dimethyl-4-oxo-2-thioxoimidazolidin-1-yl)cyclohexyl)oxy)propyl)-2-(trifluoromethyl)piperazin-1-yl)-N-(3-((2,6-dioxopiperidin-3-yl)amino)phenyl)acetamide]: the DC50 lay in the range of 0.005 to 0.01 µM and the Y entry is listed as “* (0<Y≤15%)”.

Turning to `CC1(C)C(=O)N(c2ccc(C#N)c(C(F)(F)F)c2)C(=S)N1[C@H]1CC[C@H](OCCN2CCN(CC(=O)Nc3cccc(NC4CCC(=O)NC4=O)c3)[C@@H](C(F)(F)F)C2)CC1` (stereo partly drawn) [Cmpd 19, 2-((R)-4-(2-((trans-4-(3-(4-Cyano-3-(trifluoromethyl)phenyl)-5,5-dimethyl-4-oxo-2-thioxoimidazolidin-1-yl)cyclohexyl)oxy)ethyl)-2-(trifluoromethyl)piperazin-1-yl)-N-(3-((2,6-dioxopiperidin-3-yl)amino)phenyl)acetamide hydrochloride], the half-maximal degradation concentration (DC50) is 0.005 to 0.01 µM and the Y result is reported as “* (0<Y≤15%)”.

Take `CC1(C)C(=O)N(c2cnc(C#N)c(C(F)(F)F)c2)C(=S)N1[C@H]1CC[C@H](OCCN2CCN(CC(=O)Nc3cc(F)cc(NC4CCC(=O)NC4=O)c3)[C@@H](C(F)(F)F)C2)CC1` (stereo partly drawn) [Cmpd 24, 2-((R)-4-(2-(((trans)-4-(3-(6-Cyano-5-(trifluoromethyl)pyridin-3-yl)-5,5-dimethyl-4-oxo-2-thioxoimidazolidin-1-yl)cyclohexyl)oxy)ethyl)-2-(trifluoromethyl)piperazin-1-yl)-N-(3-((2,6-dioxopiperidin-3-yl)amino)-5-fluorophenyl)acetamide]: the DC50 was at most 0.005 µM and the Y result was “* (0<Y≤15%)”.

As for `CC1(C)C(=O)N(c2ccc(C#N)c(C(F)(F)F)c2)C(=S)N1[C@H]1CC[C@H](CCCN2CCN(CC(=O)Nc3cccc(NC4CCC(=O)NC4=O)c3)[C@@H](C(F)(F)F)C2)CC1` (stereo partly drawn) [Cmpd 29, 2-((R)-4-(3-((trans)-4-(3-(4-Cyano-3-(trifluoromethyl)phenyl)-5,5-dimethyl-4-oxo-2-thioxoimidazolidin-1-yl)cyclohexyl)propyl)-2-(trifluoromethyl)piperazin-1-yl)-N-(3-((2,6-dioxopiperidin-3-yl)amino)phenyl)acetamide], the DC50 was 0.005 to 0.01 µM and the Y result is “* (0<Y≤15%)”.

On to `CC1(C)C(=O)N(c2ccc(C#N)c(C(F)(F)F)c2)C(=S)N1[C@H]1CC[C@H](OCCN2CCN(CC(=O)Nc3cc(Cl)cc(NC4CCC(=O)NC4=O)c3)[C@@H](C(F)(F)F)C2)CC1` (stereo partly drawn) [Cmpd 27, N-(3-Chloro-5-((2,6-dioxopiperidin-3-yl)amino)phenyl)-2-((R)-4-(2-(((trans)-4-(3-(4-cyano-3-(trifluoromethyl)phenyl)-5,5-dimethyl-4-oxo-2-thioxoimidazolidin-1-yl)cyclohexyl)oxy)ethyl)-2-(trifluoromethyl)piperazin-1-yl)acetamide], for which the DC50 lay in the range of 0.01 to 0.1 µM and the Y entry is given as “* (0<Y≤15%)”.

Regarding `C[C@@H]1CN(CCC[C@H]2CC[C@H](N3C(=S)N(c4cnc(C#N)c(C(F)(F)F)c4)C(=O)C3(C)C)CC2)C[C@H](C)N1CC(=O)Nc1cccc(NC2CCC(=O)NC2=O)c1` (stereo partly drawn) [Cmpd 11, 2-((2R,6S)-4-(3-(trans-4-(3-(6-Cyano-5-(trifluoromethyl)pyridin-3-yl)-5,5-dimethyl-4-oxo-2-thioxoimidazolidin-1-yl)cyclohexyl)propyl)-2,6-dimethylpiperazin-1-yl)-N-(3-((2,6-dioxopiperidin-3-yl)amino)phenyl)acetamide hydrochloride], the DC50 was at most 0.005 µM and the Y entry was “* (0<Y≤15%)”.

`C[C@@H]1CN(CCO[C@H]2CC[C@H](N3C(=S)N(c4cnc(C#N)c(C(F)(F)F)c4)C(=O)C3(C)C)CC2)C[C@H](C)N1CC(=O)Nc1cccc(N[C@H]2CCC(=O)NC2=O)c1` [Cmpd 47, 2-((2R,6S)-4-(2-(((trans)-4-(3-(6-Cyano-5-(trifluoromethyl)pyridin-3-yl)-5,5-dimethyl-4-oxo-2-thioxoimidazolidin-1-yl)cyclohexyl)oxy)ethyl)-2,6-dimethylpiperazin-1-yl)-N-(3-(((S)-2,6-dioxopiperidin-3-yl)amino)phenyl)acetamide]: the DC50 is under 1 µM and the Y result is “* (0<Y≤15%)”.

As to `C[C@@H]1C[C@H](OCCC[C@H]2CC[C@H](N3C(=S)N(c4ccc(C#N)c(C(F)(F)F)c4)C(=O)C3(C)C)CC2)C[C@H](C)N1CC(=O)Nc1cccc(NC2CCC(=O)NC2=O)c1` (stereo partly drawn) [Cmpd 32, 2-((2R,4r,6S)-4-(3-((trans)-4-(3-(4-Cyano-3-(trifluoromethyl)phenyl)-5,5-dimethyl-4-oxo-2-thioxoimidazolidin-1-yl)cyclohexyl)propoxy)-2,6-dimethylpiperidin-1-yl)-N-(3-((2,6-dioxopiperidin-3-yl)amino)phenyl)acetamide], the DC50 was 0.01 to 0.1 µM and the Y result was “** (15%<Y≤20%)”.
